Laboratory results from US20230041996A1, “CALCIUM-SENSING RECEPTOR AGONIST COMPOUND AND APPLICATION THEREOF” (BEIJING TUO JIE BIOPHARMACEUTICAL CO. LTD., priority 2019, published 2023).
Like-named read-outs stand apart in the source and are kept apart here. Square brackets hold non-standard residues; d marks the D form. Peptide text beside a SMILES is read from it. * marks the point of attachment. Cys(free,S-linked) = N[C@@H](CS*)C(=O)O; d2Thi = N[C@H](Cc1cccs1)C(=O)O; dAbu = CC[C@@H](N)C(=O)O

How the values were obtained:
[1] = biological target: T1, human calcium-sensing receptor (CaSR) (Homo sapiens, UniProt P41180); experiment: Agonist activity on human calcium-sensing receptor (IP-One HTRF in stably transfected HEK293/CaSR cells); format: cell-based
T1 construct: host or cells: HEK293
T1 sequence (P41180 20-1078): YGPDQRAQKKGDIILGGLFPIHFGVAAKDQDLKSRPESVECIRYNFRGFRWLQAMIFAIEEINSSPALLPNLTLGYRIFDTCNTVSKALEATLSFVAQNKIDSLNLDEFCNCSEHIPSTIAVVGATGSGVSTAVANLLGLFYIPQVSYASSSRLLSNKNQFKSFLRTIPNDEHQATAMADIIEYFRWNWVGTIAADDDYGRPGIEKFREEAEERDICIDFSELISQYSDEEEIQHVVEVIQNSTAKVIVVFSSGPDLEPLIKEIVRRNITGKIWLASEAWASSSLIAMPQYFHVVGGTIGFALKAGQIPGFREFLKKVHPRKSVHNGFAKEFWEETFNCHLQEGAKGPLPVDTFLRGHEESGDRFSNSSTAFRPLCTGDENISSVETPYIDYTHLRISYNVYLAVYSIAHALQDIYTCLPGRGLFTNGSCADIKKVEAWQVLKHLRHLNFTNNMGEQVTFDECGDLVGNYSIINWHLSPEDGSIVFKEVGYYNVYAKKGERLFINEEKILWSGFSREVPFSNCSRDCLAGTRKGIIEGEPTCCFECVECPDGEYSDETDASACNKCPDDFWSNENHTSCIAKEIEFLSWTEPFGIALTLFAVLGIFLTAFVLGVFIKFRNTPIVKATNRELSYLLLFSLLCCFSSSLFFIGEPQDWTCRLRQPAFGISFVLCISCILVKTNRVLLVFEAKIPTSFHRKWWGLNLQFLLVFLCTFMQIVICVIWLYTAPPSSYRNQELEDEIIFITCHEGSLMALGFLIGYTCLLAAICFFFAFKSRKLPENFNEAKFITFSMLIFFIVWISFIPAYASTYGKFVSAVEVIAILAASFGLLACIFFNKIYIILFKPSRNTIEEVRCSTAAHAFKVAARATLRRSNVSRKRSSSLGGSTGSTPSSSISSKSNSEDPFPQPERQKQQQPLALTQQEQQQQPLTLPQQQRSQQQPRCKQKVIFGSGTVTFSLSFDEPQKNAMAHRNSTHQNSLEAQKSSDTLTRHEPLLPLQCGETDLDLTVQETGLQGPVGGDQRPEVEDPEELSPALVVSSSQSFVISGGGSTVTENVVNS
How it was run: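 HEK293 cells stably expressing CaSR stimulated 60 min at 37 °C with compounds in buffer containing 1.2 mM CaCl2, 0.5 mM MgCl2 and 50 mM LiCl. IP-One accumulation measured by HTRF (665/620 nm ratio); EC50 from four-parameter fit.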

human red blood cells = experiment: Hemolytic effect on human red blood cells in vitro (absorbance at 540 nm); format: cell-based; settings: 100 μg/mL in PBS, 37° C., 1 h, FIG. 1
Experimental: To evaluate the hemolytic effect of the compounds disclosed herein on red blood cells in vitro, human whole blood (100 μL) was taken and mixed with a phosphate buffer. The mixture was centrifuged at 4° C. for 10 min and the supernatant was discarded. The red blood cells were resuspended in PBS buffer (900 μL) and centrifuged at 4° C. for 10 min with the supernatant discarded, and the procedures above were repeated once. The test example compounds were dissolved in 1×PBS buffer to a final concentration of 100 μg/mL. The red blood cells were resuspended in solutions of various test example compounds, an octylphenoxy poly(ethyleneoxy)ethanol-100 solution or PBS buffer, and incubated at 37° C. for 1 h. After incubation, the cells were centrifuged at 4° C. for 10 min and the supernatant (100 μL) was pipetted and transferred to a 96-well plate. The absorbance at 540 nm was detected for evaluating the hemolytic effect of the test example compounds on red blood cells in vitro.

[2] = HEK293/CaSR cells, IP-One production, 60 min at 37° C., CaCl2 1.2 mM, read-out: EC50 for calcium-sensing receptor

SMILES	EC50 [1, 2] [µM]	hemolytic effect on red blood cells (human red blood cells)	EC50 [1] [µM]
CC(=O)N[C@H](CSSC[C@H](N)C(=O)O)C(=O)N[C@H](CCCNC(=N)N)C(=O)N[C@H](CCCNC(=N)N)C(=O)N[C@H](Cc1cccs1)C(=O)N[C@H](CCCNC(=N)N)C(=O)N[C@H](C)C(=O)N[C@H](CCCNC(=N)N)C(N)=O [Compound 13, Ac-c(C)-r-r-(D-2-Thi)-r-a-r-NH2] (Ac-[dC](Cys(free,S-linked))[dR][dR][d2Thi][dR][dA][dR]-NH2)	1.21	no significant hemolytic effect	
CC[C@@H](NC(=O)[C@@H](CCCNC(=N)N)NC(=O)[C@@H](CCCNC(=N)N)NC(=O)[C@@H](CSSC[C@H](N)C(=O)O)NC(C)=O)C(=O)N[C@H](CCCNC(=N)N)C(=O)N[C@H](C)C(=O)N[C@H](CCCNC(=N)N)C(N)=O [Compound 17, Ac-c(C)-r-r-(D-Abu)-r-a-r-NH2] (Ac-[dC](Cys(free,S-linked))[dR][dR][dAbu][dR][dA][dR]-NH2)		no significant hemolytic effect	6.28
CC[C@@H](NC(=O)[C@@H](CCCNC(=N)N)NC(=O)[C@@H](CCCNC(=N)N)NC(=O)[C@@H](CSSC[C@H](N)C(=O)O)NC(C)=O)C(=O)N[C@H](CCCNC(=N)N)C(=O)N[C@H](CO)C(=O)N[C@H](CCCNC(=N)N)C(N)=O [Compound 31, Ac-c(C)-r-r-(D-Abu)-r-s-r-NH2] (Ac-[dC](Cys(free,S-linked))[dR][dR][dAbu][dR][dS][dR]-NH2)	5.93	no significant hemolytic effect	
